Tests used:
Assay type in all cases: cell-based, human
[1] = tested on: I407; assay: Clonogenic cell survival assay (D0.1), I407; conditions: 1407 (I407), p53 wild-type, detectable p21; for Absolute D0.1: dose reducing clonogenic survival to 10% of control, 14 days exposure
Protocol: (§1) The growth characteristics clonogenic assay procedures of the 11 human in vitro cell lines used in this analysis have already been reported e.g. in Britten R. A. and Warenius H., Eur. J. Canc. 29A, 1315-1320 (1993). The cell lines are listed, with their histological classification in Table 4. All are well established; many having been growing in vitro for several years. Cell lines were either donations or purchased by our laboratories. On receipt all were grown for 5 passages to provide sufficient cells for batch storage in liquid nitrogen. During this period contamination was excluded by at least one passage in antibiotic free medium and mycoplasma testing was carried out on all lines. For clonogenic assays, cells were taken from a designated primary liquid nitrogen batch and grown for 3-6 passages until there were sufficient well-growing cells. Further batches from these cells were frozen in liquid nitrogen. Cells were routinely maintained in DMEM medium. All lines were supplemented with 10% heat-inactivated foetal calf serum (HIFCS). […] The D0.1 values were obtained by several independent clonogenic assays and the data fitted by linear regression analysis. The clonogenic assays were repeated until statistically satisfactory fits were achieved on linear regression. The D0.1 values were obtained by interpolation of the linear regression lines. The cytotoxic drug D0.1 values have been normalised and expressed as relative D0.1 values, to enable the relative sensitivity of each cell to each of the drugs to be compared.
(§2) In order to assay CDDP sensitivity 10^2-10^5 cells were plated in 3 ml of Ham's F12 medium supplemented with 10% FCS in 6 well plates and incubated at 37° C. in an atmosphere of 5% CO2 for 8 hours. […] The medium was then removed, the cells were fixed in 70% ethanol and stained with 10% Giemsa and colonies of >100 cells counted. […] CDDP cell survival was determined at the 10% clonogenic cell survival level (D0.1) by interpolation of the fitted regression curve. […]

[2] = tested on: A431; assay: Clonogenic cell survival assay (D0.1), A431; conditions: A431, p53 mutant, undetectable p21; for Absolute D0.1: dose reducing clonogenic survival to 10% of control, 14 days exposure
Protocol: as §1, §2

[3] = tested on: HT29; assay: Clonogenic cell survival assay (D0.1), HT29; conditions: HT29, p53 mutant, undetectable p21; for Absolute D0.1: dose reducing clonogenic survival to 10% of control, 14 days exposure
Protocol: as §1, §2

[4] = tested on: CORL23; assay: Clonogenic cell survival assay (D0.1), CORL23; conditions: CORL23, p53 wild-type, detectable p21; for Absolute D0.1: dose reducing clonogenic survival to 10% of control, 14 days exposure
Protocol: as §1, §2

[5] = tested on: OAW42; assay: Clonogenic cell survival assay (D0.1), OAW42; conditions: OAW42, p53 wild-type, detectable p21
Protocol: (§3) The growth characteristics clonogenic assay procedures of the 11 human in vitro cell lines used in this analysis have already been reported e.g. in Britten R. A. and Warenius H., Eur. J. Canc. 29A, 1315-1320 (1993). The cell lines are listed, with their histological classification in Table 4. All are well established; many having been growing in vitro for several years. Cell lines were either donations or purchased by our laboratories. On receipt all were grown for 5 passages to provide sufficient cells for batch storage in liquid nitrogen. During this period contamination was excluded by at least one passage in antibiotic free medium and mycoplasma testing was carried out on all lines. For clonogenic assays, cells were taken from a designated primary liquid nitrogen batch and grown for 3-6 passages until there were sufficient well-growing cells. Further batches from these cells were frozen in liquid nitrogen. Cells were routinely maintained in DMEM medium. All lines were supplemented with 10% heat-inactivated foetal calf serum (HIFCS). […]
(§4) In order to assay CDDP sensitivity 10^2-10^5 cells were plated in 3 ml of Ham's F12 medium supplemented with 10% FCS in 6 well plates and incubated at 37° C. in an atmosphere of 5% CO2 for 8 hours. […] The medium was then removed, the cells were fixed in 70% ethanol and stained with 10% Giemsa and colonies of >100 cells counted.

[6] = tested on: 2780; assay: Clonogenic cell survival assay (D0.1), 2780; conditions: 2780, p53 wild-type, detectable p21; for Absolute D0.1: dose reducing clonogenic survival to 10% of control, 14 days exposure
Protocol: as §1, §2

[7] = tested on: MOR; assay: Clonogenic cell survival assay (D0.1), MOR; conditions: p53 mutant
Protocol: as §3, §4

[8] = tested on: HRT18; assay: Clonogenic cell survival assay (D0.1), HRT18; conditions: HRT18, p53 wild-type, detectable p21; for Absolute D0.1: dose reducing clonogenic survival to 10% of control, 14 days exposure
Protocol: as §1, §2

[9] = tested on: RT112; assay: Clonogenic cell survival assay (D0.1), RT112; conditions: RT112, p53 mutant, undetectable p21; for Absolute D0.1: dose reducing clonogenic survival to 10% of control, 14 days exposure
Protocol: as §1, §2

[10] = tested on: MEL2; assay: Clonogenic cell survival assay (D0.1), MEL2; conditions: MEL2, p53 mutant, undetectable p21; for Absolute D0.1: dose reducing clonogenic survival to 10% of control, 14 days exposure
Protocol: as §1, §2

[11] = tested on: MGHU1; assay: Clonogenic cell survival assay (D0.1), MGHU1; conditions: MGHU1, p53 wild-type, detectable p21; for Absolute D0.1: dose reducing clonogenic survival to 10% of control, 14 days exposure
Protocol: as §1, §2

[12] = absolute D0.1 divided by mean D0.1 of the drug

| SMILES | Absolute D0.1 [1] | Absolute D0.1 [2] | Absolute D0.1 [3] | Absolute D0.1 [4] | Absolute D0.1 [6] | Absolute D0.1 [8] | Absolute D0.1 [9] | Absolute D0.1 [10] | Absolute D0.1 [11] | also measured |
| --- | --- | --- | --- | --- | --- | --- | --- | --- | --- | --- |
| N.N.[Cl][Pt][Cl] [CDDP, cis-diamminedichloroplatinum] | 0.06 | 0.306 | 0.632 | 0.338 | 0.255 | 0.864 | 0.237 | 0.457 | 0.4494 | Relative D0.1 [1, 12]: 0.15; Relative D0.1 [2, 12]: 0.765; Relative D0.1 [3, 12]: 1.58; Relative D0.1 [4, 12]: 0.845; Relative D0.1 [5, 12]: 0.27; Absolute D0.1 ([5]; dose reducing clonogenic survival to 10% of control, 14 days exposure): 0.108; Relative D0.1 [6, 12]: 0.637; Relative D0.1 ([7]; undetectable p21, absolute D0.1 divided by mean D0.1 of the drug): 1.573; Absolute D0.1 ([7]; undetectable p21, dose reducing clonogenic survival to 10% of control, 14 days exposure): 0.629; Relative D0.1 [8, 12]: 2.16; Relative D0.1 [9, 12]: 0.593; Relative D0.1 [10, 12]: 1.143; Relative D0.1 [11, 12]: 1.235 |
| CC(=O)O[C@H]1C(=O)[C@@]2(C)[C@H]([C@H](OC(=O)c3ccccc3)[C@]3(O)C[C@H](OC(=O)[C@H](O)[C@@H](NC(=O)c4ccccc4)c4ccccc4)C(C)=C1C3(C)C)[C@]1(OC(C)=O)CO[C@@H]1C[C@@H]2O [Paclitaxel (TAXOL), Paclitaxel] | 1.504 | 0.823 | 1.106 | 0.497 | 2.113 | 10.415 | 1.523 | 0.57 | 1.144 |  |

Source: US6521407B1, “Methods for determining chemosensitivity of cancer cells based upon expression of negative and positive signal transduction factors” (TheRyte Limited, priority 1998, dated 2003)
